The test has as its system Swiss mice, Sarcoma 180 sc, mean tumor weight T/C. Briefly: NCI In Vivo Anticancer Drug Screen. Data for tumor model Sarcoma 180 (subcutaneous) in Swiss mice. The conditions noted are these: endpoint: mean tumor weight, higher = larger tumour. As for the experimental part:
The antitumor activity of compounds was measured in mice bearing transplantable tumors. Survival or tumor size were measured and the results are expressed as the measurement made in the treated group (T) divided by the measurement made in the vehicle treated control group (C). The tumor model used in this assay is Sarcoma 180 (subcutaneous) in Swiss mice

[1] abbreviates: dose: 1.0 mg/kg/injection, schedule: Q01DX007 (ip), vehicle: carboxymethylcellulose (CMC).

Values joined by “and” are separate entries in the source; they are usually repeats but may differ in a detail not shown here. Equal values may be shown once.

Consider five compounds from PubChem BioAssay AID342 (DTP/NCI, 2004).

Usually T/C stands for the ratio of treated to control.

Turning to `N#Cc1ccc(S(N)(=O)=O)cc1`, the T/C was 76 % of control (dose: 30.0 mg/kg/injection, schedule: Q01DX007 (ip), vehicle: alkali diluted with saline); 70 % of control (dose: 33.0 mg/kg/injection, schedule: Q01DX007 (ip), vehicle: other); 71 % of control (dose: 44.0 mg/kg/injection, schedule: Q01DX007 (ip), vehicle: alkali diluted with saline); 68 % of control (dose: 49.0 mg/kg/injection, schedule: Q01DX007 (ip), vehicle: other); 54 % of control (dose: 66.0 mg/kg/injection, schedule: Q01DX007 (ip), vehicle: alkali diluted with saline); 59 % of control (dose: 74.0 mg/kg/injection, schedule: Q01DX007 (ip), vehicle: other). Also, the T/C runs as follows: (dose: 100.0 mg/kg/injection, schedule: Q01DX007 (ip), vehicle: alkali diluted with saline) 39 % of control; (dose: 111.0 mg/kg/injection, schedule: Q01DX007 (ip), vehicle: other) 45 % of control and 60 % of control; (dose: 166.0 mg/kg/injection, schedule: Q01DX007 (ip), vehicle: other) 34 % of control; (dose: 250.0 mg/kg/injection, schedule: Q01DX007 (ip), vehicle: other) 13 % of control.
`CCCCCN(C)/N=N/c1nc[nH]c1C(N)=O`: the T/C reads like this: (dose: 50.0 mg/kg/injection, schedule: Q01DX007 (ip), vehicle: carboxymethylcellulose (CMC)) 41 % of control and 51 % of control; (dose: 75.0 mg/kg/injection, schedule: Q01DX007 (ip), vehicle: carboxymethylcellulose (CMC)) 23 % of control and 36 % of control; (dose: 100.0 mg/kg/injection, schedule: Q01DX007 (ip), vehicle: carboxymethylcellulose (CMC)) 24 % of control.
Take `O=CNC(Cc1cccc(N(CCCl)CCCl)c1)C(=O)O` (stereo not drawn): the T/C was 45 % of control (dose: 2.5 mg/kg/injection, schedule: Q#A X014 (ip), vehicle: methylcellulose (MC)); 21 % of control and 25 % of control (dose: 4.5 mg/kg/injection, schedule: Q#A X014 (ip), vehicle: methylcellulose (MC)); 52 % of control (dose: 5.0 mg/kg/injection, schedule: Q#A X014 (ip), vehicle: methylcellulose (MC)); 18 % of control (dose: 7.5 mg/kg/injection, schedule: Q#A X014 (ip), vehicle: methylcellulose (MC)); 20 % of control (dose: 15.0 mg/kg/injection, schedule: Q#A X014 (ip), vehicle: methylcellulose (MC)).
As to `N#[N+]c1cnc([O-])[nH]c1=O`, the T/C was 103 % of control under setting [1]; 102 % of control (dose: 2.0 mg/kg/injection, schedule: Q01DX007 (ip), vehicle: carboxymethylcellulose (CMC)); 105 % of control (dose: 4.0 mg/kg/injection, schedule: Q01DX007 (ip), vehicle: carboxymethylcellulose (CMC)); 95 % of control (dose: 8.0 mg/kg/injection, schedule: Q01DX007 (ip), vehicle: carboxymethylcellulose (CMC)).
As for `C[C@]12CC[C@H](OC3OC(CO)C(O)C(O)C3O)C[C@H]1CC[C@@H]1[C@@H]2CC[C@]2(C)[C@@H](C3=CCOC3=O)CC[C@]12O` (stereo partly drawn), the T/C is, setting by setting: (dose: 0.01 mg/kg/injection, schedule: Q01DX007 (ip), vehicle: carboxymethylcellulose (CMC)) 60 % of control; (dose: 0.05 mg/kg/injection, schedule: Q01DX007 (ip), vehicle: carboxymethylcellulose (CMC)) 40 % of control; (dose: 0.12 mg/kg/injection, schedule: Q03DX003 (ip), vehicle: carboxymethylcellulose (CMC)) 81 % of control; (dose: 0.12 mg/kg/injection, schedule: Q#A X014 (ip), vehicle: carboxymethylcellulose (CMC)) 99 % of control; (dose: 0.2 mg/kg/injection, schedule: Q01DX007 (ip), vehicle: carboxymethylcellulose (CMC)) 46 % of control; (dose: 0.25 mg/kg/injection, schedule: Q01DX007 (ip), vehicle: saline) 82 % of control. The T/C was 86 % of control (dose: 0.25 mg/kg/injection, schedule: Q01DX007 (ip), vehicle: water); 75 % of control (dose: 0.25 mg/kg/injection, schedule: Q03DX003 (ip), vehicle: carboxymethylcellulose (CMC)); 57 % of control (dose: 0.25 mg/kg/injection, schedule: Q#A X014 (ip), vehicle: carboxymethylcellulose (CMC)); 49 % of control and 51 % of control (dose: 0.26 mg/kg/injection, schedule: Q01DX007 (ip), vehicle: saline); 105 % of control and 108 % of control (dose: 0.38 mg/kg/injection, schedule: Q03DX003 (ip), vehicle: carboxymethylcellulose (CMC)); 55 % of control (dose: 0.5 mg/kg/injection, schedule: Q01DX007 (ip), vehicle: saline). Further, the T/C by setting is: (dose: 0.5 mg/kg/injection, schedule: Q01DX007 (ip), vehicle: water) 90 % of control; (dose: 0.5 mg/kg/injection, schedule: Q03DX003 (ip), vehicle: carboxymethylcellulose (CMC)) 92 % of control; (dose: 0.5 mg/kg/injection, schedule: Q#A X014 (ip), vehicle: carboxymethylcellulose (CMC)) 53 % of control; (dose: 0.6 mg/kg/injection, schedule: Q01DX007 (ip), vehicle: saline) 34 % of control and 57 % of control; (dose: 0.8 mg/kg/injection, schedule: Q01DX007 (ip), vehicle: carboxymethylcellulose (CMC)) 27 % of control; (dose: 0.9 mg/kg/injection, schedule: Q01DX007 (ip), vehicle: saline) 47 % of control and 51 % of control. The T/C was 13 % of control (dose: 0.96 mg/kg/injection, schedule: Q01DX007 (ip), vehicle: saline); 28 % of control under setting [1]; 40 % of control (dose: 1.0 mg/kg/injection, schedule: Q01DX007 (ip), vehicle: saline); 40 % of control (dose: 1.0 mg/kg/injection, schedule: Q01DX007 (ip), vehicle: water); 35 % of control (dose: 1.0 mg/kg/injection, schedule: Q#A X014 (ip), vehicle: carboxymethylcellulose (CMC)); 32 % of control and 38 % of control (dose: 1.3 mg/kg/injection, schedule: Q01DX007 (ip), vehicle: saline). The T/C (dose: 1.9 mg/kg/injection, schedule: Q01DX007 (ip), vehicle: saline) was 13 % of control; the T/C (dose: 2.0 mg/kg/injection, schedule: Q01DX007 (ip), vehicle: saline) was 22 % of control and 43 % of control; the T/C (dose: 10.4 mg/kg/injection, schedule: Q01DX007 (oral), vehicle: carboxymethylcellulose (CMC)) is 89 % of control; the T/C (dose: 16.0 mg/kg/injection, schedule: Q01DX007 (oral), vehicle: carboxymethylcellulose (CMC)) is 95 % of control; the T/C (dose: 24.0 mg/kg/injection, schedule: Q01DX007 (oral), vehicle: carboxymethylcellulose (CMC)) was 110 % of control; the T/C (dose: 36.0 mg/kg/injection, schedule: Q01DX007 (oral), vehicle: carboxymethylcellulose (CMC)) is 74 % of control. In addition, the T/C (dose: 54.0 mg/kg/injection, schedule: Q01DX007 (oral), vehicle: carboxymethylcellulose (CMC)) is 101 % of control; the T/C (dose: 80.0 mg/kg/injection, schedule: Q01DX007 (oral), vehicle: carboxymethylcellulose (CMC)) is 105 % of control; the T/C (dose: 81.0 mg/kg/injection, schedule: Q01DX007 (oral), vehicle: carboxymethylcellulose (CMC)) is 100 % of control; the T/C (dose: 120.0 mg/kg/injection, schedule: Q01DX007 (oral), vehicle: carboxymethylcellulose (CMC)) was 91 % of control; the T/C (dose: 150.0 mg/kg/injection, schedule: Q01DX007 (oral), vehicle: carboxymethylcellulose (CMC)) is 82 % of control; the T/C (dose: 160.0 mg/kg/injection, schedule: Q01DX007 (oral), vehicle: carboxymethylcellulose (CMC)) is 85 % of control. Moreover, the T/C reads like this: (dose: 300.0 mg/kg/injection, schedule: Q01DX007 (oral), vehicle: carboxymethylcellulose (CMC)) 97 % of control; (dose: 500.0 mg/kg/injection, schedule: Q01DX007 (oral), vehicle: carboxymethylcellulose (CMC)) 96 % of control; (dose: 15.0 micrograms/kg/injection, schedule: Q01DX007 (ip), vehicle: saline) 73 % of control and 89 % of control; (dose: 120.0 micrograms/kg/injection, schedule: Q01DX007 (ip), vehicle: saline) 65 % of control and 77 % of control; (dose: 125.0 micrograms/kg/injection, schedule: Q01DX007 (ip), vehicle: carboxymethylcellulose (CMC)) 85 % of control and 99 % of control; (dose: 240.0 micrograms/kg/injection, schedule: Q01DX007 (ip), vehicle: saline) 73 % of control and 84 % of control. The T/C (dose: 250.0 micrograms/kg/injection, schedule: Q01DX007 (ip), vehicle: carboxymethylcellulose (CMC)) is 72 % of control and 79 % of control; the T/C (dose: 500.0 micrograms/kg/injection, schedule: Q01DX007 (ip), vehicle: carboxymethylcellulose (CMC)) is 47 % of control and 62 % of control; the T/C (dose: 960.0 micrograms/kg/injection, schedule: Q01DX007 (ip), vehicle: saline) was 33 % of control; the T/C (dose: 2000.0 micrograms/kg/injection, schedule: Q01DX007 (ip), vehicle: carboxymethylcellulose (CMC)) is 68 % of control.
